Bounds are passed on as bounds.

The subject of one data set is HSP27. The experiment in a line: Human phosphokinase array, HSP27. Format: cell-based. An excerpt: The kinome tree representation (Figure 7C), which was generated by raising the Kinase Score cut-off to >1.2, confirmed that, unlike tirbanibulin and our prototype molecule KX1-136, 4e’s effects were more observable on kinases other than the Src family such as the Eph and TEC families. […] Therefore, we screened compound 4e using the Human Phospho-Kinase Array® kit from R&D systems (Minneapolis, MN, USA). In this system, 35 phosphorylated YK and serine-threonine kinase (STK) enzymes in the untreated (control) and treated (test) HL60 cell lysates were captured on nitrocellulose membrane, pre-spotted with phosphokinase-specific capture antibodies, and then visualized by detection antibody cocktails (Figure 8). The difference in the spot intensity between untreated (control) and treated cells is proportional to change in the amount of the phosphorylated protein induced by 4e.
The phosphorylation profile of 48 kinases was performed using the Proteome Profiler Human Phospho-Kinase Antibody Array Kit by R&D Systems (Minneapolis, MN, USA) according to the protocol. Briefly, the total cellular protein was extracted using the Lysis buffer and was quantified using Bio-Rad DC Protein Assay kit (Hercules, CA, USA). Nitrocellulose membrane set (A&B), pre-spotted with kinase-specific capture antibodies, were first blocked with Array Buffer-1 at RT for 30 min on a rocking platform shaker. Approximately 600 µg of protein concentrate was diluted in the buffer provided and was added onto the membrane set, and the membranes were incubated overnight at 4°C in an 8-well plate. Subsequently, membranes were washed with Wash Buffer and incubated with appropriate Detection Antibody cocktails for 2 h at RT. Streptavadin-HRP (1:2000) was added onto membranes and incubated for 30 min at RT. Membranes were washed, and Chemiluminescent Detection Reagents 1&2 were applied in equal volumes for detection. The signals were detected on C-DiGit®Blot Scanner (LI-COR, Odyssey Imaging Systems, Lincoln, Nebraska, USA) using Image Studio 5.0 software.

Data set [1] is described as follows: Stability in mouse plasma. Format: in vitro ADME. To be noted: CD-1, mouse, pH 7.4, 37°C, read-out: Mouse Plasma Stability t1/2. The protocol: The assay was conducted at 37°C in triplicate. Test compounds or procaine (positive control) were tested at a final concentration of 1 µM in either 2.5% DMSO/CD-1 mouse plasma (Innovative Research, Novi, MI; sodium heparin added as anticoagulant; pH adjusted to 7.4 with 2N HCl on day of use) or 2.5% DMSO/PBS (pH 7.4: 136.9 mM NaCl, 2.68 mM KCl, 8.1 mM Na2HPO4, 1.47 mM KH2PO4, 0.9 mM CaCl2, 0.49 mM MgCl2). At seven time points, reaction mixture aliquots were transferred to 96-shallow well stop plates on ice containing acetonitrile with 0.1 µM propafenone. Samples were analyzed by LC/MS/MS on a Waters Xevo TQ instrument as described above using positive electrospray ionization. Assay acceptance criteria was 20% for all standards and 25% for the LLOQ. GraphPad® Prism v. 5.04 was used for nonlinear fitting of data to generate t1/2 values.

A further data set relates to HCT116 cell line. Description: MTT anti-proliferative assay, HCT116. Format: cell-based, human. The conditions noted are these: Homo sapiens, HCT-116, 72 h, maximum tested concentration 50 µM, read-out: IC50 ± SEM, HCT116. On the procedure: The test compounds were evaluated for anti-proliferative activity using the MTT viability assay against HCT116 cell line. Cells were seeded in triplicate in 96-well plates at a density of 10x 10^3 cells/mL in a total volume of 200 µL per well. 0.1% of DMSO was used as a vehicle control. Each well was treated with 2 µL test compounds, which had been pre-prepared as stock solutions in […] to furnish the concentration range of study, 0.1 µM to 50 µM, and re-incubated for a further 72 h at 37°C in a humidified atmosphere containing 5% CO2. The culture medium was then removed, and the cells were washed with 100 µL PBS and 100 µL MTT was added, to reach a final concentration of 1 mg/mL MTT. Cells were incubated for 3 h in darkness at 37°C. After that, MTT solution was removed and MTT was solubilized by adding […] DMSO. The cells were maintained at room temperature in darkness for 20 min to ensure thorough color diffusion before reading the absorbance using a microplate reader at 570 nm. All experiments were conducted in triplicates. Results were expressed as percentage viability relative to vehicle control (100%). Dose response curves were plotted and IC50 values (concentration of drug resulting in 50% reduction in cell survival) were obtained using the commercial software package Prism (GraphPad Software, Inc., La Jolla, CA, USA).

For orientation: IC50 means the concentration that gives 50% inhibition. As to `O=C(Cc1ccc(NC(=O)c2cccc(Cl)c2)cc1)NCc1ccccc1` [Compound 4e, N-(4-(2-(benzylamino)-2-oxoethyl)phenyl)-3-chlorobenzamide], the “decrease of Hsp27 Ser78 and Ser82 phosphorylation” value in the data set with HSP27 (HL60, versus control) was 92.3%. Besides, the “phosphokinase signal after 4e exposure, HSP27” value with HSP27 (HL60 cell lysate, treated) is on record as 3.71. Further, in the data set on HSP27 (treated vs untreated HL60), the “% Change, HSP27” value is on record as -92.31% and the “Change in Signal, HSP27” value is -44.51. Further, the half-life at 1 µM in data set [1] was more than 5 h. Further, in the data set on HCT116 cell line, the IC50 came to 16.8 ± 2.69 µM.

Turning to `O=C(Cc1ccc(NC(=O)c2cccc(Cl)n2)cc1)NCc1ccccc1` [Compound 4n, N-(4-(2-(benzylamino)-2-oxoethyl)phenyl)-6-chloropicolinamide], the half-life at 1 µM in data set [1] worked out at 2.97 h. Moreover, in the data set on HCT116 cell line, the IC50 was 10.8 µM.

Source of the values: PMC9166630, “SAR Probing of KX2-391 Provided Analogues With Juxtaposed Activity Profile Against Major Oncogenic Kinases” (Frontiers in Oncology, 2022).
